Results published in US20190374509A1, “Methods of Using Metamizole for Treatment of Pyrexia in Equines” (Kindred Biosciences, Inc., priority 2018, published 2019).

Test system: horses
Assay: Margin of safety study, IV three times daily for 9 days: necropsy, organ weights, histopathology
Format: in vivo
Details: for Liver (absolute weight) LS Means / Liver (relative to body weight) LS Means: necropsy
Protocol: A study was conducted to evaluate the margin of safety of metamizole when administered intravenously to horses for 9 days at doses of 0 mg/kg (0×), 30 mg/kg (1×), 60 mg/kg (2×), and 90 mg/kg (3×) of body weight three times daily (TID), every 8 hours±30 min.
Treatment phase involved administration of the investigational drug or placebo. The investigational drug was a sterile injectable formulation of dipyrone (Zimeta™, Corden Pharma, Caponago, Italy) (500 mg/mL) in 100 mL glass bottles. The placebo was sterile injectable saline (Nova-Tech Inc, Grand Island, NE) (0.9% sodium chloride) in 500 mL plastic bottles labeled for veterinary use. Dipyrone treatment groups were 30 mg/kg (1×), 60 mg/kg (2×), and 90 mg/kg (3×). Placebo treatment group was saline administered at a volume to match the 3× dipyrone group (0×). The dose was calculated based on body weight and administered three times daily for nine consecutive days. Due to the large volume of injection at the higher dose groups, treatment was administered via indwelling intravenous (IV) catheters. Intravenous catheters were placed using standard techniques. Horses were sedated with xylazine (AnaSed® LA, VetOne, MWI, Boise, Id.) and the skin was desensitized with subcutaneous injection of lidocaine (VetOne, MWI, Boise, Id.). Intravenous catheters were replaced at the discretion of the study director and were maintained with heparinized saline flush prior to and following dose administration.
Randomization occurred on Study Day −1. […] .
For continuous endpoints with single post-treatment measures (organ weight and organ weight relative to body weight), analysis of variance (ANOVA) was used to evaluate a model including treatment, sex, and treatment by sex interaction as fixed effects. If treatment by sex interaction was significant, within sex pair-wise comparison of each treatment group versus placebo using linear contrasts were performed. If treatment by sex interaction was not significant and treatment effect was significant, pair-wise comparison of each treatment group versus placebo for pooled sex were performed. In particular, sex specific organ weights (ovaries) were analyzed by ANOVA including only treatment as a fixed effect.

Compound: Cc1c(N(C)CS(=O)(=O)O)c(=O)n(-c2ccccc2)n1C [dipyrone, [(2,3-dihydro-1,5-dimethyl-3-oxo-2-phenyl-1H-pyrazol-4-yl)methylamino] methanesulfonic acid]
- Liver (absolute weight) LS Means (1X, 30 mg/kg IV every 8 hours): 6280.00 g
- Liver (relative to body weight) LS Means (1X, 30 mg/kg IV every 8 hours): 13.69
- Liver (absolute weight) LS Means (2X, 60 mg/kg IV every 8 hours): 6892.50 g
- Liver (relative to body weight) LS Means (2X, 60 mg/kg IV every 8 hours): 15.28
- Liver (absolute weight) LS Means (3X, 90 mg/kg IV every 8 hours): 7765.21 g
- Liver (relative to body weight) LS Means (3X, 90 mg/kg IV every 8 hours): 16.38
- Effect on absolute and relative liver weights (30, 60, 90 mg/kg IV every 8 hours for 9 days vs placebo): statistically significant increase in absolute and relative liver weights
- Renal, hepatic and gastrointestinal gross necropsy and histopathology evaluation (up to 90 mg/kg IV every 8 hours for 9 days): no significant findings
